In US8648045B2, “VDAC1 compositions and methods of use thereof for regulating apoptosis” (Ben Gurion University of the Negev Research and Development …, priority 2005, dated 2014):

Experiments:
[1] = biological target: T1, E72Q-mVDAC1 (Mus musculus, UniProt Q60932, E72Q); assay: VDAC channel recording in planar lipid bilayer (PLB); assay type: biochemical; conditions: PLB, 0 mV to −20 mV; all ten experiments
T1 construct: made in house; host or cells: yeast (purified from mitochondria of yeast expressing mutated mVDAC1)
T1 sequence (Q60932 14-296 E72Q limits assumed): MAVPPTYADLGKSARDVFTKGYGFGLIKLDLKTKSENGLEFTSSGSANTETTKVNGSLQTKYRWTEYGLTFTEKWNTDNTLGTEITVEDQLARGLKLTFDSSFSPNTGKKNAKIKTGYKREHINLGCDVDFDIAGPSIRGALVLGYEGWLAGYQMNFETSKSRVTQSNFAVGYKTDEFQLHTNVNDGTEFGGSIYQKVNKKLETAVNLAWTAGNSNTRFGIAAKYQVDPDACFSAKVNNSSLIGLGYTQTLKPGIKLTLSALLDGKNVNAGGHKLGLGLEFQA
Description: (§1) Native and mutated mVDAC1 were extracted with lauryldimethylamine N-oxide (LDAO) from mitochondria isolated from yeast expressing various VDACs, and purified by chromatography on hydroxyapatite followed by carboxymethyl (CM)-cellulose where LDAO was replaced by β-OG (β-octylglucoside).
(§2) Reconstitution of purified VDAC into a planar lipid bilayer (PLB) multi-channel current recording and data analyses were carried as follows. Briefly, PLB were prepared from soybean asolactin dissolved in n-decane (50 mg/ml) in a chamber containing 10 mM HEPES/KOH pH 7.4 and 0.5 or 1M NaCl (cis/trans). Only PLBs with a resistance greater than 100 GΩ were used. Purified VDAC (about 1 ng) was added to the chamber defined as the cis side. After one or a few channels inserted into the PLB, excess protein was removed by perfusion of the cis chamber with 20 volumes of a solution (with the same composition as before perfusion), in order to prevent further protein incorporation. Currents were recorded under voltage-clamp mode using a Bilayer Clamp amplifier (Warner Instrument, USA). The currents were measured with respect to the trans side of the membrane (ground). The currents were low-pass filtered at 1 kHz, using a Bessal filter (Frequency Devices, USA) and digitized on-line using a Digidata 1200 interface board and pCLAMP 6 software (Axon Instruments). Sigma Plot 2000 scientific software was used for data analyses. Experiments were performed at 23-25° C.
(§3) FIG. 1A: Purified recombinant native or E72Q-mutated mVDAC1 was reconstituted into a PLB (planar lipid bilayer) in symmetrical solutions of 0.5 M NaCl. Currents through VDAC1 channel in response to a voltage step from zero to −20 mV were recorded before and 5 min after the addition of HK-I (28.6 mU/ml). The dashed lines indicate the zero-current level. […] FIG. 1C: Cytochrome c release was assayed, using a monoclonal anti-cytochrome c antibody, in the absence or the presence of HK-I (1 U/ml), chymotrypsin-treated HK-I (1 U/ml) or CsA (10 micro M).
(§4) RuR, known to interact with several Ca^2+ binding proteins and to inhibit Ca^2+ transport in mitochondria, inhibited channel activity of native but not of E72Q-mutated VDAC1 (FIG. 5E). Purified recombinant native and E72Q-mVDAC1 variant were reconstituted into a planar lipid bilayer (PLB) and the currents produced in response to voltages stepped from a holding potential of 0 mV to −20 mV were recorded. […] The level of inhibition calculated from […] different experiments was 89.2±2.8% (mean±SD, n=9). In contrast, the channel activity of E72Q-mVDAC1 was not inhibited by RuR in all ten experiments.

[2] = biological target: T2, recombinant native mVDAC1 (Mus musculus, UniProt Q60932); assay: as above; assay type: biochemical; conditions: RuR; PLB, voltage stepped 0 mV to −20 mV; mean±SD, n=9
T2 construct: made in house; host or cells: yeast (purified from mitochondria of yeast expressing mVDAC1)
T2 sequence (Q60932 14-296 limits assumed): as the sequence (Q60932 14-296 E72Q limits assumed) above, with Q59E counted along it
Description: as §1, §2, §3, §4

[3] = test system: U937 cells; assay: Apoptotic cell death of U937 cells transfected with native or mutated mVDAC1, with/without RuR (acridine orange/ethidium bromide staining); assay type: cell-based, human
Description: Logarithmically-growing U937 cells were resuspended in RPMI 1640 supplemented with 10% FCS, 100 U/ml penicillin and […] streptomycin at a concentration of 2.5×10^7 cells/ml. Cells were transfected to express rat or murine VDAC1 using the vectors pEGFP, pEGFP-VDAC1, pEGFP-E72Q-mVDAC1, pE-mVDAC1 or pE-E72Q-mVDAC1. Transfection of the U937 cells was performed by electroporation with a single pulse from a Bio-Rad micropulser II with a capacitance extender unit (200 V, […]). Cells were incubated on ice for 10 min before and after transfection, and then resuspended in 20 ml of RPMI 1640 supplemented with 10% FCS, 1 mM l-glutamine, 100 U/ml penicillin and […] streptomycin. […] GFP-positive cells were viewed under a microscope using a blue filter.
Cells were plated at a density of 5.4×10^4 cells/cm^2 in 24-well plates, washed once with PBS and placed in serum-free medium. Cells were then incubated with or without RuR or Ru360. Cells were also treated with […] staurosporine (STS) to induce apoptosis and analyzed for viability 3, 5 and 7 hrs after STS addition. Treatments with curcumin (120 μM) or As2O3 (20 μM) were carried out for 48 hrs.
Fifty six (56) hr after transfection, cells were exposed for 20 hr to RuR (1 μM) and cell viability was analyzed using acridine orange/ethidium bromide staining. In each independent experiment, approximately 250 cells were counted for each including early and late apoptotic cells. Data shown in FIG. 5 and Table 2 are the mean±SEM (n=3).

[4] = test system: permeability transition pore (PTP); assay: PTP opening monitored by Ca2+ accumulation and mitochondrial swelling; assay type: biochemical, rat; conditions: LP1 0.1 mM or 0.3 mM; brain HK-I 0.25 U/ml pre-incubated 10 min with LP1
Description: Ca^2+ uptake by freshly prepared rat liver mitochondria (0.5 mg/ml) was assayed for 1 to 20 minutes at 30° C. in the presence of 225 mM mannitol, 75 mM sucrose, 120 μM CaCl2 (containing 3×10^4 cpm/nmol [^45Ca^2+]), 5 mM HEPES/KOH, 5 mM succinate and 0.1 mM Pi, pH 7.0. Uptake of ^45Ca^2+ was terminated by rapid Millipore filtration followed by a wash with 5 ml of 150 mM KCl.
Ca^2+-induced mitochondria large amplitude swelling was assayed in freshly-prepared mitochondria under the same conditions as for Ca^2+ accumulation, except that the temperature was 24° C. Cyclosporine A (CsA)-sensitive mitochondrial swelling was initiated upon addition of Ca^2+ (0.2 mM) to the sample. Absorbance changes at 520 nm were monitored every 15-20 sec with an Ultraspec 2100 spectrophotometer.
The failure of non-binding species of HK, such as yeast HK, or trypsin- or chymotrypsin-treated HK-I (FIG. 2D) to prevent PTP opening, confirmed the specificity of the HK-I effect, and of the requirement of the HK-I N-terminal region for its interaction with VDAC.
Mitochondrial swelling was assayed in the absence (control ●) or the presence of HK-I (gray ●) and in presence HK-I pre-incubated with peptide LP1. Mitochondrial swelling was assayed as in FIG. 2 in the absence and the presence of peptide LP1 (0.1 mM or 0.3 mM), brain HK-I (0.25 U/ml) or with HK-I pre-incubated for 10 min with LP1. […]

[5] = biological target: T3, mitochondrial bound HK-I (Rattus norvegicus, UniProt P05708); assay: Detachment of mitochondria-bound HK-I; assay type: biochemical; conditions: rat brain mitochondria; HK-I activity in the supernatant
T3 construct: from tissue; host or cells: rat brain mitochondria
T3 sequence (P05708 1-918): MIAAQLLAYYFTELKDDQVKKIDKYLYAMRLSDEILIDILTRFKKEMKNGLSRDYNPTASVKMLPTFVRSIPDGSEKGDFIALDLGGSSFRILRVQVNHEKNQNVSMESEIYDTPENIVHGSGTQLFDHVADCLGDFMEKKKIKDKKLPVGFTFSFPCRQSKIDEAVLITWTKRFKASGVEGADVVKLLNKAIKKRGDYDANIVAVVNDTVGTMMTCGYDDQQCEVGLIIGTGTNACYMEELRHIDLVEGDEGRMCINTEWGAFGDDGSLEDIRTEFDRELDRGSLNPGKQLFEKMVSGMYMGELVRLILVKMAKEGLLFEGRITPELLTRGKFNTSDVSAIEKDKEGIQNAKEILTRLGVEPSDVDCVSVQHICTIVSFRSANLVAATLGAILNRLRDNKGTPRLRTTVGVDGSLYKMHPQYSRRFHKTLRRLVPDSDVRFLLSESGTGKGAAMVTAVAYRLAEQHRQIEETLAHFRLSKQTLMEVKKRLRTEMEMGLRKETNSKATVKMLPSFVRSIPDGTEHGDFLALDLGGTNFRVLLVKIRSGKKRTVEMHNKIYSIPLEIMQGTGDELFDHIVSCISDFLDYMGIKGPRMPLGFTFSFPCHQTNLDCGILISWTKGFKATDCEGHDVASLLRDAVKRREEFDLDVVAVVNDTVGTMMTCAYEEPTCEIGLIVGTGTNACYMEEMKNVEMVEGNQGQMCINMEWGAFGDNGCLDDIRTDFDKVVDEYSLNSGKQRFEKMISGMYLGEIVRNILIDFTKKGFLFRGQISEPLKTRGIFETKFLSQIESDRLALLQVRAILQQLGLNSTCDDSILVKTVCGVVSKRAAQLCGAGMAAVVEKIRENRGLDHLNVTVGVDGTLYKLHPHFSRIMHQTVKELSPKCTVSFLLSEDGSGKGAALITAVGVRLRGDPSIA

Molecule | inhibition of channel activity by RuR [1] | level of inhibition of channel activity [2] | Apoptotic cells, % +RuR ([3]; Control (non-transfected) U937 cells, RuR 1 μM) | effect on apoptotic death in control or plasmid-transfected cells ([3]; RuR) | protective effect of RuR on VDAC1 over-expression-induced cell death ([3]; cells expressing E72Q-mVDAC1, E72Q-mVDAC1-GFP or E65Q-mVDAC1) | increase in the total level of VDAC1 protein ([3]; cells expressing native mVDAC1 exposed to RuR) | protection against apoptotic cell death ([3]; cells over-expressing VDAC1 or VDAC1-GFP, 1 μM RuR for 18 hr or 5 μM RuR for 5 hr) | effect on HK-I prevention of PTP opening [4] | detachment of mitochondria-bound HK-I [5]
N.N.N.N.N.N.N.N.N.N.N.N.N.N.[Cl-].[Cl-].[Cl-].[Cl-].[Cl-].[Cl-].[O-2].[O-2].[Ru+3].[Ru+3].[Ru+4] [RuR, ruthenium red] | not inhibited | 89.2±2.8% | 9.1 ± 2.1% | had no effect or even slightly increased apoptotic death | not observed | over 5 fold | 64-72% | – | –
WTEYGLTFTEKWNTD [Peptide LP1, 15 amino acid peptide derived from the first cytosolic β-loop of VDAC1, amino acids 63-78] | – | – | – | – | – | – | – | eliminates the HK-I prevention of PTP opening | able to release mitochondrial bound HK-I
